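1) Cells in 96-well plates. 2) Compound, 48 h, 5 concentrations. 3) Linear interpolation between surrounding doses. 4) Unreached endpoint = highest concentration. Abbreviation: GI50, concentration required for 50% inhibition of growth.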 Active and inactive are the calls of the source. Cut-off read from the data, not from the text of the source: active = GI50 up to about 1.1 µM and inactive = higher.
Assays:
Experiment in all cases: inhibition of tumour cell growth, NCI panel, 48 h
SK-MEL-5 = test system: SK-MEL-5
U-251 = test system: U-251
A498 = test system: A498
PC-3 = test system: PC-3
UACC-257 = test system: UACC-257
RPMI-8226 = test system: RPMI-8226
ACHN = test system: ACHN
RXF 393 = test system: RXF 393
HT-29 = test system: HT-29
SF-295 = test system: SF-295
MCF7 = test system: MCF7
BT-549 = test system: BT-549
UO-31 = test system: UO-31
SF-268 = test system: SF-268
HCT-116 = test system: HCT-116
MDA-MB-231 = test system: MDA-MB-231
MDA-N = test system: MDA-N
SW-620 = test system: SW-620
IGROV-1 = test system: IGROV-1
HOP-62 = test system: HOP-62

| Structure (SMILES) | GI50 (SK-MEL-5) | GI50 (U-251) | GI50 (A498) | GI50 (PC-3) | GI50 (UACC-257) | GI50 (RPMI-8226) | GI50 (ACHN) | GI50 (RXF 393) | GI50 (HT-29) | GI50 (SF-295) | GI50 (MCF7) | GI50 (BT-549) | GI50 (UO-31) | GI50 (SF-268) | GI50 (HCT-116) | GI50 (MDA-MB-231) | GI50 (MDA-N) | GI50 (SW-620) | GI50 (IGROV-1) | GI50 (HOP-62) |
| --- | --- | --- | --- | --- | --- | --- | --- | --- | --- | --- | --- | --- | --- | --- | --- | --- | --- | --- | --- | --- |
| Nc1ncc2c(n1)-c1ccccc1OC2N1CCCCC1 (centres undefined) | > 100 µM (inactive) | > 100 µM (inactive) | > 100 µM (inactive) | > 100 µM (inactive) | > 100 µM (inactive) | > 100 µM (inactive) | > 100 µM (inactive) | > 100 µM (inactive) | > 100 µM (inactive) | > 100 µM (inactive) | > 100 µM (inactive) | > 100 µM (inactive) | > 100 µM (inactive) | > 100 µM (inactive) | > 100 µM (inactive) | > 100 µM (inactive) | > 100 µM (inactive) | > 100 µM (inactive) | > 100 µM (inactive) |  |
| O=[N+]([O-])C(=C(N1CCOCC1)N1CCOCC1)/C(Cl)=C(\Cl)Br |  | 19 µM (inactive) | 37.4 µM (inactive) | 35 µM (inactive) | 17.3 µM (inactive) | 14.5 µM (inactive) | 24.8 µM (inactive) |  | 26.8 µM (inactive) | > 100 µM (inactive) | > 10 µM (inactive) | 13.3 µM (inactive) | 18.4 µM (inactive) | 23.6 µM (inactive) | 17.1 µM (inactive) | 17.9 µM (inactive) | 26.4 µM (inactive) | 15.5 µM (inactive) |  | > 100 µM (inactive) |
| O=C(/C=C/c1ccc(C(F)(F)F)cc1)c1c([O-])on[n+]1-c1ccccc1 | 2.8 µM (inactive) | 1.83 µM (inactive) | 7.05 µM (inactive) | 3.19 µM (inactive) | 2.12 µM (inactive) | 0.261 µM (active) | 1.51 µM (inactive) | 1.27 µM (inactive) | 0.889 µM (active) | 3.6 µM (inactive) | 1.15 µM (inactive) | 1.59 µM (inactive) | 1.91 µM (inactive) |  | 1.75 µM (inactive) | 4.53 µM (inactive) | 1.84 µM (inactive) | 1.37 µM (inactive) | 1.86 µM (inactive) | 3.95 µM (inactive) |
| O=C(O)CC1(CC(=O)O)Nc2ccccc2SC1=O | > 100 µM (inactive) | > 100 µM (inactive) | > 100 µM (inactive) | > 100 µM (inactive) | > 100 µM (inactive) | > 100 µM (inactive) | > 100 µM (inactive) | > 100 µM (inactive) | > 100 µM (inactive) | > 100 µM (inactive) | > 100 µM (inactive) | > 100 µM (inactive) | > 100 µM (inactive) | > 100 µM (inactive) | > 100 µM (inactive) | > 100 µM (inactive) | > 100 µM (inactive) | > 100 µM (inactive) | > 100 µM (inactive) | > 100 µM (inactive) |
| O=C1C=C(C2=C(C3=CC(=O)c4ccccc4C3=O)C(=O)c3ccccc3C2=O)C(=O)c2ccccc21 | 9.4 µM (inactive) | 4.48 µM (inactive) | 16.9 µM (inactive) | 10.4 µM (inactive) | 10.5 µM (inactive) | 3.48 µM (inactive) | 17.9 µM (inactive) | 1.69 µM (inactive) | 3.12 µM (inactive) | 16.1 µM (inactive) | 7.69 µM (inactive) | 14.6 µM (inactive) | 2.85 µM (inactive) | 12.6 µM (inactive) | 4.84 µM (inactive) | 3.07 µM (inactive) | 2.25 µM (inactive) | 3.79 µM (inactive) | 2.15 µM (inactive) | 14.8 µM (inactive) |
| COc1ccc(C2CC(C)(O)Oc3cc4c(cc32)OCO4)cc1 (centres undefined) | 25.4 µM (inactive) | 31.4 µM (inactive) | 30.9 µM (inactive) | 18.7 µM (inactive) | 32.4 µM (inactive) | 27.4 µM (inactive) | 43.2 µM (inactive) | 0.0855 µM (active) | 24.9 µM (inactive) | 30.8 µM (inactive) | 34.9 µM (inactive) | 17.3 µM (inactive) | 37.1 µM (inactive) | 35.8 µM (inactive) | 30.6 µM (inactive) | 32.6 µM (inactive) | 10.5 µM (inactive) | 36 µM (inactive) | 29.5 µM (inactive) | 40.1 µM (inactive) |
| CC(C)Cn1cnnc1NS(=O)(=O)c1cc(C(=O)NN)c(Cl)cc1S | > 10 µM (inactive) | > 10 µM (inactive) | > 10 µM (inactive) | > 10 µM (inactive) | > 10 µM (inactive) | > 10 µM (inactive) | > 10 µM (inactive) | > 10 µM (inactive) | > 10 µM (inactive) | > 10 µM (inactive) | > 10 µM (inactive) | > 10 µM (inactive) |  | > 10 µM (inactive) | > 10 µM (inactive) | > 10 µM (inactive) | > 10 µM (inactive) | > 10 µM (inactive) | > 10 µM (inactive) | > 10 µM (inactive) |
| Cc1cn(C2OC(CO)C(O)C2F)c(=O)[nH]c1=O (centres undefined) | > 100 µM (inactive) | > 100 µM (inactive) | > 100 µM (inactive) | > 100 µM (inactive) | > 100 µM (inactive) |  | 89.7 µM (inactive) | 43 µM (inactive) | > 100 µM (inactive) | > 100 µM (inactive) | > 100 µM (inactive) | 87.1 µM (inactive) | > 100 µM (inactive) | > 100 µM (inactive) | 73.3 µM (inactive) | > 100 µM (inactive) | > 100 µM (inactive) | > 100 µM (inactive) | > 100 µM (inactive) | 95.3 µM (inactive) |
| c1ccc(NNN2NC(c3ccccc3)C2c2ccccc2)cc1 (centres undefined) | > 100 µM (inactive) | > 100 µM (inactive) | > 100 µM (inactive) | > 100 µM (inactive) | 87.9 µM (inactive) | > 100 µM (inactive) | > 100 µM (inactive) | 24.3 µM (inactive) | > 100 µM (inactive) | > 100 µM (inactive) | 98.2 µM (inactive) | > 100 µM (inactive) | 36.6 µM (inactive) | > 100 µM (inactive) | 79.4 µM (inactive) | > 100 µM (inactive) | > 100 µM (inactive) | > 100 µM (inactive) |  |  |
| Cc1cc(N)c2cc(NC(=O)Nc3ccc4nc(C)cc(N)c4c3)ccc2n1 | 70.1 µM (inactive) | 70.6 µM (inactive) | > 100 µM (inactive) | > 100 µM (inactive) | > 100 µM (inactive) | > 100 µM (inactive) | > 100 µM (inactive) |  | > 100 µM (inactive) | 89.5 µM (inactive) | > 100 µM (inactive) | > 100 µM (inactive) | > 100 µM (inactive) | > 100 µM (inactive) | > 100 µM (inactive) | 47.8 µM (inactive) | > 100 µM (inactive) | > 100 µM (inactive) | > 100 µM (inactive) | 61.8 µM (inactive) |
| CN1c2ccccc2C2=C(c3ccccc3)CC[C@@H](C(=O)N3C4CC5CC[C@@]4(CS3(=O)=O)C5(C)C)[C@@H]21 (some centres undefined) | > 100 µM (inactive) | > 100 µM (inactive) | > 100 µM (inactive) | 4.1 µM (inactive) | > 100 µM (inactive) | > 100 µM (inactive) | > 100 µM (inactive) |  | > 100 µM (inactive) | > 100 µM (inactive) | > 100 µM (inactive) | > 100 µM (inactive) | > 100 µM (inactive) | > 100 µM (inactive) | 34.2 µM (inactive) | > 100 µM (inactive) | > 100 µM (inactive) | > 100 µM (inactive) | > 100 µM (inactive) | > 100 µM (inactive) |
| CO/N=C1/C(n2[nH]c(=O)n(-c3ccccc3)c2=O)C2C=CC1n1c(=O)n(-c3ccccc3)c(=O)n12 (centres undefined) | > 100 µM (inactive) | > 100 µM (inactive) | > 100 µM (inactive) | > 100 µM (inactive) | > 100 µM (inactive) | > 100 µM (inactive) |  | > 100 µM (inactive) | > 100 µM (inactive) |  | > 100 µM (inactive) | > 100 µM (inactive) | > 100 µM (inactive) | > 100 µM (inactive) | > 100 µM (inactive) | > 100 µM (inactive) | > 100 µM (inactive) | > 100 µM (inactive) | > 100 µM (inactive) |  |
| CN(C)CCNc1ccc([N+](=O)[O-])c2sc3ccccc3c(=O)c12 | 8.63 µM (inactive) | 3.48 µM (inactive) |  | 4.11 µM (inactive) | 6.28 µM (inactive) | 2.64 µM (inactive) | 2.51 µM (inactive) | 14.4 µM (inactive) | 2.57 µM (inactive) | 4.24 µM (inactive) | 3.41 µM (inactive) | 2.1 µM (inactive) | 4.34 µM (inactive) | 4.21 µM (inactive) | 2.47 µM (inactive) | 1.99 µM (inactive) | 4.92 µM (inactive) | 2.43 µM (inactive) | 1.73 µM (inactive) | 2.81 µM (inactive) |
| CCOC(=O)c1c2ccccc2n2c(=O)n(-c3ccc(OC)cc3)nnc12 | 58.5 µM (inactive) | 16.9 µM (inactive) | 44.3 µM (inactive) | 18.2 µM (inactive) | 60.5 µM (inactive) | 25.1 µM (inactive) | 31.1 µM (inactive) | 19 µM (inactive) |  | 20.3 µM (inactive) | 0.555 µM (active) | 26.5 µM (inactive) | 29.4 µM (inactive) | 16.2 µM (inactive) | 54.8 µM (inactive) | > 45.5 µM (inactive) | > 100 µM (inactive) | > 42.4 µM (inactive) | 17.5 µM (inactive) | 21.1 µM (inactive) |

— ChEMBL document CHEMBL1201862, “PubChem BioAssay data set” (2004)
